Measurements published in the NIST ThermoML archive (doi:10.1021/je034066w).
Numbers after ± are expanded uncertainties.

Conditions: Liquid

Critical pressure (Direct measurement): 4755 ± 48 kPa
Critical temperature (Visual observation in a stirred cell): 508.15 ± 0.12 K
SMILES: CC(C)O [propan-2-ol]
